Ring closure, yield of all isomers data for 1 compound are collected here from patent publication US20100120716.

The conditions of this data set: from C=CCCCCCC[C@@H](NC(=O)C1CC(OC(=O)N2Cc3ccccc3C2)CN1C(=O)N(C)CC=C)B1O[C@@H]2C[C@@H]3C[C@@H](C3(C)C)[C@]2(C)O1; rcm bond; Grubbs 2nd generation catalyst; toluene; 6.5 mM; 65.0 °C.

`CN1CC=CCCCCCC[C@H](B2O[C@@H]3C[C@@H]4C[C@@H](C4(C)C)[C@]3(C)O2)NC(=O)C2CC(OC(=O)N3Cc4ccccc4C3)CN2C1=O` (stereo partly shown) yielded a ring closure, yield of all isomers of 40%.
